Test results published in patent publication US11220524B2, “Selective inhibitors of protein arginine methyltransferase 5 (PRMT5)” (PRELUDE THERAPEUTICS, INCORPORATED, priority 2017, dated 2022).
Counter-ions that a name gives are not always drawn. Like-named read-outs stand apart in the source and are kept apart here.

Experiments:
[1] = tested on: Symmetric Di-Methyl Arginine (sDMA) in Granta-519 cells; test: Western blot for symmetric di-methyl arginine (sDMA) marks in Granta cells, 3 days treatment; type: cell-based; settings: Homo sapiens, 3 days
Procedure: Cell Treatment and Western Blotting for Detecting Symmetric Di-Methyl Arginine (sDMA) and Histone H3R8 Dimethyl Symmetric (H3R8me2s) Marks
Initial compounds screening in A549 cells: Compounds were dissolved in DMSO to make 10 mM stock and further diluted to 0.1, and 1 mM. A549 cells were maintained in PRMI 1640 (Corning Cellgro, Catalog #: 10-040-CV) medium supplemented with 10% v/v FBS (GE Healthcare, Catalog #: SH30910.03). One day before experiment, 1.25×10^5 cells were seeded in 6 well plate in 3 mL medium and incubated overnight. The next day, medium was changed and 3 uL of compound solution was added (1:1,000 dilution, 0.1 and 1 uM final concentration; DMSO concentration: 0.1%), and incubated for 3 days. Cells incubated with DMSO was used as a vehicle control. Cells were washed once with PBS, trypsinized in 150 uL 0.25% Trypsin (Corning, Catalog #: 25-053-CI), neutralized with 1 mL complete medium, transferred to microcentrifuge tubes and collected. Cell pellet was then resuspended in 15 uL PBS, lysed in 4% SDS, and homogenized by passing through homogenizer column (Omega Biotek, Catalog #: HCR003). Total protein concentrations were determined by BCA assay (ThermoFisher Scientific, Catalog #: 23225). Lysates were mixed with 5× Laemmli buffer and boiled for 5 min. Forty ug of total protein was separated on SDS-PAGE gels (Bio-Rad, catalog #: 4568083, 4568043), transferred to PVDF membrane, blocked with 5% dry milk (Bio-Rad, Catalog #: 1706404) in TBS with 0.1% v/v Tween 20 (TBST) for 1 hour at room temperature (RT), and incubated with primary antibodies (sDMA: Cell signaling, Catalog #: 13222, 1:3,000; H3R8me2s: Epigentek, Catalog #: A-3706-100, 1:2,000; β-Actin: Abcam, Catalog #: ab8227, 1:10,000) in 5% dry milk in TBST at 4° C. for overnight. The next day, membranes were washed with TBST, 5×5 min, and incubated withhP conjugated seconded antibody (GE Healthcare; Catalog #: NA934-1ML; 1:5,000) for 2 hours at RT, followed by 5×5 min washes with TBST, and incubation with ECL substrates (Bio-Rad, Catalog #: 1705061, 1705062). Chemiluminescent signal was captured with FluoChem HD2 imager (Proteinsimple) and analyzed by ImageJ.
Cells incubated with DMSO was used as a vehicle control. Cells were harvested and subjected to western blot analysis as described above. SmD3me2s and H3R8me2s bands were quantified by ImageJ. Signals were normalized to β-Actin and DMSO control. IC50 values were calculated using Graphpad Prism.

PRMT5/MEP50 complex = PRMT5/MEP50 complex (Homo sapiens (Human), UniProt O14744); test: Biochemical assay: PRMT5/MEP50 methylation of histone H2A with 3H-SAM, filter plate scintillation
Sequence of PRMT5/MEP50 complex (O14744 whole entry): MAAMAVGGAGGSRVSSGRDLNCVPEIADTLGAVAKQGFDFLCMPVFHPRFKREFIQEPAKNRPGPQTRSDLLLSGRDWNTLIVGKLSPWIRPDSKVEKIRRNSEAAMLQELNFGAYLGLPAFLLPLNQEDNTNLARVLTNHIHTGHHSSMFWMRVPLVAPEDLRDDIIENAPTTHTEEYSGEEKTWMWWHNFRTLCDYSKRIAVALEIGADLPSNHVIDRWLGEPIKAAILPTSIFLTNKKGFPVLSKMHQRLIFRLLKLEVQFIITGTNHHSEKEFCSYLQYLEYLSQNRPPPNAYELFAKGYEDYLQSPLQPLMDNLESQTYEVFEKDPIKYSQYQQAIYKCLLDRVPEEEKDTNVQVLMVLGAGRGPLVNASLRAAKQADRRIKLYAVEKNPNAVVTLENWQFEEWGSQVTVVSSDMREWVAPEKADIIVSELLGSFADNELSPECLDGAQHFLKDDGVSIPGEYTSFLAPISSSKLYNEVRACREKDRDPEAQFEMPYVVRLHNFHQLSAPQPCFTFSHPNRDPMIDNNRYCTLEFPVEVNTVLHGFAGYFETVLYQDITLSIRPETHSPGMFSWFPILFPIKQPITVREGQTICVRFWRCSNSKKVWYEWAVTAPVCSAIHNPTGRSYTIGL
Sequence of PRMT5/MEP50 complex (Q9BQA1 whole entry partner): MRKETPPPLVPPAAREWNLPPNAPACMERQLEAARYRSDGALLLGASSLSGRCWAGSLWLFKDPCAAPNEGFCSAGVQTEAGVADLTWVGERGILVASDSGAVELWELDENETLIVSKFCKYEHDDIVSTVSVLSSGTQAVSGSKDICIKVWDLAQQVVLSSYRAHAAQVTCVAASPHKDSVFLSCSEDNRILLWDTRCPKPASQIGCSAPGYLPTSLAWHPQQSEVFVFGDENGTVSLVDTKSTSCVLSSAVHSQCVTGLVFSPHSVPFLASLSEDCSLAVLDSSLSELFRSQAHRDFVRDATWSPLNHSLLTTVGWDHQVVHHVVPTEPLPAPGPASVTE
Procedure: Biochemical Assay Protocol
Compounds were solubilized, and 3-fold diluted in 100% DMSO. […] Standard reactions were performed in a total volume of […] assay buffer, with histone H2A (5 μM final) as substrate. To this was added the PRMT5/MEP50 complex diluted to provide a final assay concentration of 5 nM and the compounds were allowed to preincubate for 15 to 20 minutes at room temperature. The reaction was initiated by adding S-[3H-methyl]-adenosyl-L-methionine (PerkinElmer) to final concentration of 1 μM. Following a 60 minutes incubation at 30° C., the reaction was stopped by adding 100 μL of 20% TCA. Each reaction was spotted onto filter plate (MultiScreen FB Filter Plate, Millipore), and washed 5 times with PBS buffer, Scintillation fluid was added to the filter plate and read in a scintillation counter. IC50 values were determined by fitting the data to the standard 4 parameters with Hill Slope using GraphPad Prism software.

[2] = Granta-519, 72 h, Granta cell line
[3] = biochemical potency, read-out: PRTMT5/MEP50 IC50
[4] = histone H2A 5 μM, SAM 1 μM, enzyme 5 nM, read-out: PRMT5/MEP50 IC50

Row | IC50 (PRMT5/MEP50 complex; [4]) | SMILES | further results
1 |  | CC(c1ccc(Cl)cc1)C1O[C@@H](n2ccc3c(N)ncnc32)[C@H](O)[C@@H]1O (stereo in doubt) [Example 6-C, (2R,3R,4S,5S)-2-(4-amino-7H-pyrrolo[2,3-d]pyrimidin-7-yl)-5-(1-(4-chlorophenyl)ethyl)tetrahydrofuran-3,4-diol] | IC50 [1, 2]: 0.093 µM; IC50 (PRMT5/MEP50 complex; [3]): 0.0069 µM
2 |  | Cc1cc([C@@](C)(O)[C@H]2O[C@@H](n3cnc4c(N)ncnc43)[C@H](O)[C@@H]2O)ccc1Cl [Example 2-C, (2R,3R,4S,5S)-2-(6-amino-9H-purin-9-yl)-5-((R)-1-(4-chloro-3-methylphenyl)-1-hydroxyethyl)tetrahydrofuran-3,4-diol] | IC50 [1, 2]: 0.013 µM; IC50 (PRMT5/MEP50 complex; [3]): 0.0135 µM
3 |  | C[C@@](O)(c1ccc(Cl)c(Cl)c1)[C@H]1O[C@@H](n2cc(F)c3c(N)ncnc32)[C@H](O)[C@@H]1O [Example 3-C, (2R,3R,4S,5S)-2-(4-amino-5-fluoro-7H-pyrrolo[2,3-d]pyrimidin-7-yl)-5-((R)-1-(3,4-dichlorophenyl)-1-hydroxyethyl)tetrahydrofuran-3,4-diol] | IC50 [1, 2]: 0.0038 µM; IC50 (PRMT5/MEP50 complex; [3]): 0.0009 µM
4 |  | C[C@@H](c1ccc(Cl)cc1)[C@H]1O[C@@H](n2ccc3c(N)ncnc32)[C@H](O)[C@@H]1O [Example 5-C, (2R,3R,4S,5R)-2-(4-amino-7H-pyrrolo[2,3-d]pyrimidin-7-yl)-5-((S)-1-(4-chlorophenyl)ethyl)tetrahydrofuran-3,4-diolhydrochloride] | IC50 [1, 2]: 0.091 µM
5 |  | C[C@@](O)(c1ccc(Cl)c(F)c1)[C@H]1O[C@@H](n2cc(F)c3c(N)ncnc32)[C@H](O)[C@@H]1O [Example 15-C, (2R,3R,4S,5S)-2-(4-amino-5-fluoro-7H-pyrrolo[2,3-d]pyrimidin-7-yl)-5-((R)-1-(4-chloro-3-fluorophenyl)-1-hydroxyethyl)tetrahydrofuran-3,4-diol] | IC50 [1, 2]: 0.0019 µM; IC50 (PRMT5/MEP50 complex; [3]): 0.001 µM
6 |  | CCO/N=c1\nc[nH]c2c1ccn2[C@@H]1O[C@H]([C@](C)(O)c2ccc(Cl)cc2)[C@@H](O)[C@H]1O [Example 83, 7-((2R,3R,4S)-5-((R)-1-(4-chlorophenyl)-1-hydroxyethyl)-3,4-dihydroxytetrahydrofuran-2-yl)-1,7-dihydro-4H-pyrrolo[2,3-d]pyrimidin-4-one O-ethyl oxime] | IC50 ([1]; 72 h, Granta-519 cell line): 0.097 µM
7 |  | CO/N=c1/nc[nH]c2c1ccn2[C@@H]1O[C@H]([C@](C)(O)c2ccc(Cl)c(F)c2)[C@@H](O)[C@H]1O [Example 96] | IC50 ([1]; 72 h, Granta-519 cell line): 0.142 µM
8 | 0.308 µM | C#Cc1cn([C@@H]2O[C@H]([C@H](O)c3ccc(Cl)cc3)[C@@H](O)[C@H]2O)c2[nH]cn/c(=N\OC)c12 [Example 101, 7-((2R,3R,4S,5R)-5-((R)-(4-chlorophenyl)(hydroxy)methyl)-3,4-dihydroxytetrahydrofuran-2-yl)-5-ethynyl-1,7-dihydro-4H-pyrrolo[2,3-d]pyrimidin-4-one O-methyl oxime] | 
9 | 0.0102 µM | C#Cc1cn([C@@H]2O[C@H]([C@H](O)c3ccc(Cl)c(Cl)c3)[C@@H](O)[C@H]2O)c2[nH]cn/c(=N\OC)c12 [Example 104, 7-((2R,3R,4S,5R)-5-((R)-(3,4-dichlorophenyl)(hydroxy)methyl)-3,4-dihydroxytetrahydrofuran-2-yl)-5-ethynyl-1,5-dihydro-4H-7l4-pyrrolo[2,3-d]pyrimidin-4-one O-methyl oxime] | 
10 | 0.0002 µM | C[C@@](O)(C1C=C(Cl)C(Cl)=CC1)[C@H]1O[C@@H](n2ccc3/c(=N\O)nc[nH]c32)[C@H](O)[C@@H]1O (stereo partly drawn) [Example 105, 7-((2R,3R,4S,5S)-5-((1R)-1-(3,4-dichlorocyclohexa-2,4-dien-1-yl)-1-hydroxyethyl)-3,4-dihydroxytetrahydrofuran-2-yl)-1,7-dihydro-4H-pyrrolo[2,3-d]pyrimidin-4-one oxime] | 
11 | 0.113 µM | O[C@@H]1[C@H](O)[C@@H]([C@H](O)c2ccc(Cl)c(Cl)c2)O[C@H]1n1ccc2/c(=N/OCC(F)F)nc[nH]c21 [Example 106, 7-((2R,3R,4S,5R)-5-((R)-(3,4-dichlorophenyl)(hydroxy)methyl)-3,4-dihydroxytetrahydrofuran-2-yl)-1,4a,7,7a-tetrahydro-4H-pyrrolo[2,3-d]pyrimidin-4-one 0-(2,2-difluoroethyl) oxime] | 
12 | 0.028 µM | CO/N=c1\nc[nH]c2c1c(F)cn2[C@@H]1O[C@H]([C@](C)(O)c2ccc(Cl)c(Cl)c2)[C@@H](O)[C@H]1O [Example 107, 7-((2R,3R,4S,5S)-5-((R)-1-(3,4-dichlorophenyl)-1-hydroxyethyl)-3,4-dihydroxytetrahydrofuran-2-yl)-5-fluoro-1,7-dihydro-4H-pyrrolo[2,3-d]pyrimidin-4-one O-methyl oxime] | 
13 | 0.18 µM | N/N=c1/nc[nH]c2c1ncn2[C@@H]1O[C@H]([C@H](O)c2ccc(Cl)cc2)[C@@H](O)[C@H]1O [compound 39, (2R,3S,4R,5R)-2-[(R)-(4-chlorophenyl)-hydroxy-methyl]-5-(6-hydrazinopurin-9-yl) tetrahydrofuran-3,4-diol] | 
14 | 0.526 µM | CO/N=c1/nc[nH]c2c1ncn2[C@@H]1O[C@H]([C@H](O)c2ccc(Cl)cc2)[C@@H](O)[C@H]1O [compound 53, (2R,3S,4R,5R)-2-[(R)-(4-chlorophenyl)-hydroxy-methyl]-5-[6-methoxyimino-3H-purin-9-yl]tetrahydrofuran-3,4-diol trifluoroacetic Acid Salt] | 
15 | 0.0756 µM | CO/N=c1\nc[nH]c2c1c(F)cn2[C@@H]1OC([C@H](O)c2ccc(Cl)cc2)[C@@H](O)[C@H]1O (stereo partly drawn) [compound 74, 7-((2R,3R,4S)-5-((R)-(4-chlorophenyl)(hydroxy)methyl)-3,4-dihydroxytetrahydrofuran-2-yl)-5-fluoro-1,7-dihydro-4H-pyrrolo[2,3-d]pyrimidin-4-one O-methyl oxime] | 
16 | 0.0954 µM | CO/N=c1\nc[nH]c2c1ccn2[C@@H]1O[C@H]([C@H](O)c2ccc(C(F)(F)F)cc2)[C@@H](O)[C@H]1O [compound 75, 7-((2R,3R,4S,5R)-3,4-dihydroxy-5-((R)-hydroxy(4-(trifluoromethyl)phenyl)methyl)tetrahydrofuran-2-yl)-1,7-dihydro-4H-pyrrolo[2,3-d]pyrimidin-4-one O-methyl oxime] | 
17 | 0.0027 µM | N/N=c1\nc[nH]c2c1ccn2[C@@H]1O[C@H]([C@H](O)c2ccc(C(F)(F)F)cc2)[C@@H](O)[C@H]1O [compound 76, (2R,3R,4S,5R)-2-((Z)-4-hydrazineylidene-1,4-dihydro-7H-pyrrolo[2,3-d]pyrimidin-7-yl)-5-((R)-hydroxy(4-(trifluoromethyl)phenyl)methyl)tetrahydrofuran-3,4-diol] | 
18 | 0.118 µM | Cc1cn([C@@H]2O[C@H]([C@H](O)c3ccc(Cl)cc3)[C@@H](O)[C@H]2O)c2[nH]cn/c(=N\O)c12 [compound 77, 7-((2R,3R,4S,5R)-5-((R)-(4-chlorophenyl)(hydroxy)methyl)-3,4-dihydroxytetrahydrofuran-2-yl)-5-methyl-1,7-dihydro-4H-pyrrolo[2,3-d]pyrimidin-4-one oxime] | 
19 | 6.46 µM | CO/N=c1\nc[nH]c2c1ccn2[C@@H]1OC([C@](O)(c2ccc(Cl)cc2)C(F)(F)F)[C@@H](O)[C@H]1O (stereo partly drawn) [compound 79, 7-((2R,3R,4S)-5-((R)-1-(4-chlorophenyl)-2,2,2-trifluoro-1-hydroxyethyl)-3,4-dihydroxytetrahydrofuran-2-yl)-1,7-dihydro-4H-pyrrolo[2,3-d]pyrimidin-4-one O-methyl oxime] | 
